Test results: patent US10596234B2, “Compositions and methods to inhibit viral replication” (priority 2016, dated 2020)

Experiments:
cGAS [1] = experiment: Real-time PCR in THP-1 cells stably expressing UL37, transfected with HT-DNA; assay type: cell-based, human
Protocol: THP-1 or L929 cells were infected with HSV-1 (MOI=5) or stimulated with HT-DNA (2 μg/ml) or cGAMP (2 μg/ml) for 6 h unless specifically indicated otherwise. Cells were washed with cold PBS, and total RNA was extracted by using TRIzol Reagent (Invitrogen). RNA was digested with DNase I (New England Biolabs) to remove genomic DNA. One microgram of total RNA was used for reverse transcription with PrimeScript Reverse Transcriptase (Clontech) according to the manufacturer's instruction. Approximately 0.5% of the cDNA was used as template in each quantitative real-time PCR (qRT-PCR) reaction with SYBR master mix (Applied biosystems).
Lentivirus production was carried out in 293T cells as described previously. THP-1 or L929 cells were infected with lentivirus containing UL37 or UL37 C819S mutant. After 36 h, THP-1 cells were selected with puromycin at 1 μg/ml and L929 cells were selected with puromycin at 5 μg/ml.

RIG-I = target: T1, RIG-I (Homo sapiens, UniProt O95786, D580E); experiment: In vitro deamidation assay (RIG-I); assay type: biochemical; settings: protein purified from E. coli, 2-DGE
T1 construct: made in house; host or cells: GST-RIG-I: transfected 293T cells; UL37: E. coli
T1 sequence (O95786 1-925 D580E): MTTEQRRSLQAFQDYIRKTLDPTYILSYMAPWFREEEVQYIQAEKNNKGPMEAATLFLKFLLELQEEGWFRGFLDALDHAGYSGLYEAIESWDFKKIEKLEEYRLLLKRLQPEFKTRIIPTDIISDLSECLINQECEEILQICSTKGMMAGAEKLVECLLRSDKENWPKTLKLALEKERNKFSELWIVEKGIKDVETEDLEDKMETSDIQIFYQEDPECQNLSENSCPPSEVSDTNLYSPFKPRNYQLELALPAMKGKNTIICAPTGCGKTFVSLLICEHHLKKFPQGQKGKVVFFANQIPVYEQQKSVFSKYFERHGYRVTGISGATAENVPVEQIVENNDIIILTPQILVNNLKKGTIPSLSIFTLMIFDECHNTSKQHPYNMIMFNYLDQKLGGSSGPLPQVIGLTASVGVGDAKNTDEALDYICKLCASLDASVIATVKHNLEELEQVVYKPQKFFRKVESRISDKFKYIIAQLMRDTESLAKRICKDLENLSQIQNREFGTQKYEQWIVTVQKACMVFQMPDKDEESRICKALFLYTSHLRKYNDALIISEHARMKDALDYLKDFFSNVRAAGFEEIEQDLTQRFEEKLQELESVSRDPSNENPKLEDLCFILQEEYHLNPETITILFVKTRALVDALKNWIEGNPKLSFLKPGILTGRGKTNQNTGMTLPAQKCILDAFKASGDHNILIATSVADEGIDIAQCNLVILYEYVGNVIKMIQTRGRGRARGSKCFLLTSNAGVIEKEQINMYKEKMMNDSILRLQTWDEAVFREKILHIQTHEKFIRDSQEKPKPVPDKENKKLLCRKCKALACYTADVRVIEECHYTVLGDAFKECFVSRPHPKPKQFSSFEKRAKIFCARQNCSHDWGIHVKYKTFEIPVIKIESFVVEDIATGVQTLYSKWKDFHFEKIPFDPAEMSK
Protocol: GST-RIG-I was purified from transfected 293T cells to homogeneity as determined by silver staining. In vitro on-column deamidation of RIG-I was performed as previously reported (He et al., 2015). Briefly, ˜0.2 μg of His-tagged UL37/UL37 (571-1123) expressed and purified from E. coli, and 0.6 μg of GST-RIG-I (bound to glutathione-conjugated agarose) were added to a total volume of 30 μl. The reaction was carried out at 30° C. for 45 min in deamidation buffer (50 mM Tris-HCl, pH 7.5, 100 mM NaCl, 5 mM MgCl2). Protein-bound GST beads were washed with deamidation buffer and GST-RIG-I was eluted with rehydration buffer (6 M Urea, 2 M Thio-urea, 2% CHAPS, 0.5% IPG Buffer, 0.002% bromophenol blue) at room temperature. Samples were then analyzed by two-dimensional gel electrophoresis and immunoblotting.

cGAS [2] = target: T2, cGAS (Mus musculus, UniProt Q8C6L5); experiment: In vitro cGAMP activity assay; assay type: biochemical; settings: in vitro cGAMP reaction
T2 construct: Purified mcGAS(141-507) was deamidated by purified FLAG-UL37 in vitro; made in house; host or cells: E. coli BL21 (DE3)
Protocol: 1 μM of MBP-cGAS or mutant proteins was mixed with 100 μM ATP and 100 μM GTP and 10 μCi [α-P32]-ATP in reaction buffer (20 mM Tris-Cl [pH 7.5], 150 mM NaCl, 5 mM MgCl2, 1 mM dithiothreitol [DTT]). After 2 h of incubation at 37° C., 2 μl of reaction solution was spotted onto PEI-Cellulose thin layer chromatography plate (Sigma). Reaction products were resolved with running buffer (1 M (NH4)2SO4, 1.5 M KH2PO4, pH 3.8). The TLC plates were dried and scanned with Phosphoimager (Fuji).

cGAS [3] = experiment: In vitro deamidation assay (cGAS); assay type: biochemical, mouse; settings: purified proteins
Protocol: The in vitro deamidation assay was performed as previously described. Briefly, 5 μg of purified MBP-mcGAS or MBP-mcGAS-DDEE mutant on amylose resin was incubated with 0.5 gig of purified FLAG-UL37 or FLAG-UL37C819S at 30° C. for 45 min in deamidation buffer (50 mM Tris-HCl [pH 7.5], 100 mM NaCl, and 5 mM MgCl2). Then the reaction was stopped by adding rehydration buffer and the eluted proteins were analyzed by two-dimensional gel electrophoresis.

cGAS [4] = experiment: Tandem mass spectrometry quantification of cGAS deamidation; assay type: biochemical, mouse; settings: UL37 expression; N196, N377, Q436, Q439
Protocol: Purified mcGAS(141-507) was deamidated by purified FLAG-UL37 in vitro. Then the samples were resolved with SDS-PAGE and the mcGAS bands were excised and applied to LC/MS/MS analysis. The analysis of samples was carried out using a Thermo Scientific Q-Exactive hybrid Quadrupole-Orbitrap Mass Spectrometer and a Thermo Dionex UltiMate 3000 RSLCnano System. Peptide mixtures from each sample were loaded onto a peptide trap cartridge at a flow rate of 5 μL/min. The trapped peptides were eluted onto a reversed-phase PicoFrit column (New Objective, Woburn, Mass.) using a linear gradient of acetonitrile (3-36%) in 0.1% formic acid. The elution duration was 120 min at a flow rate of 0.3 μl/min. Eluted peptides from the PicoFrit column were ionized and sprayed into the mass spectrometer, using a Nanospray Flex Ion Source ES071 (Thermo) under the following settings: spray voltage, 2.0 kV, Capillary temperature, 250° C. Other settings were empirically determined. Raw data files were searched against mouse protein sequence database obtained from NCBI website using the Proteome Discoverer 1.4 software (Thermo, San Jose, Calif.) based on the SEQUEST algorithm. Carbamidomethylation (+57.021 Da) of cysteines was fixed modification, and Oxidation and Deamidation Q/N-deamidated (+0.98402 Da) were set as dynamic modifications. The minimum peptide length was specified to be five amino acids. […]

[5] = test system: interferon-stimulating DNA (ISD); experiment: Precipitation of biotinylated interferon-stimulating DNA (ISD) with cGAS; assay type: binding
IFN-β = IFN-β ELISA, 293T cells stably expressing UL37 infected with Sendai virus; assay type: cell-based, human; settings: UL37 expression, SeV infection, 16 hpi
Protocol: Commercial cytokine ELISA kits used in this study include: human IFN-β (PBL Assay Science) and human RANTES (R&D Systems). Cytokine levels in the supernatant from cultured cells were assessed according to manufacturer's instruction. Absorbance was determined with FLUOstar Omega (BMG Labtech.).

cGAS [6] = experiment: cGAMP reporter assay (THP1-Lucia); assay type: cell-based, human; settings: THP-1 cells transfected with HT-DNA (HT-DNA alone approximately 60 ng)
Protocol: THP-1 Cells were transfected with HT-DNA (2 μg/ml) or infected with HSV-1 virus for 6 h. Cell extracts were prepared by heating at 95° C. for 5 min to denature most proteins, and then the precipitated proteins were removed by centrifugation. The supernatant containing cGAMP was delivered to digitonin-permeabilized (2.5 μg/ml for 30 min) THP1-Lucia cells at 37° C. for 30 min. The cells were cultured for another 20 h before Lucia reporter activity was measured according to the manufacturer's instruction (InvivoGen). Pure cGAMP was diluted and used as standard for the assay.

T2 sequence (Q8C6L5 141-507): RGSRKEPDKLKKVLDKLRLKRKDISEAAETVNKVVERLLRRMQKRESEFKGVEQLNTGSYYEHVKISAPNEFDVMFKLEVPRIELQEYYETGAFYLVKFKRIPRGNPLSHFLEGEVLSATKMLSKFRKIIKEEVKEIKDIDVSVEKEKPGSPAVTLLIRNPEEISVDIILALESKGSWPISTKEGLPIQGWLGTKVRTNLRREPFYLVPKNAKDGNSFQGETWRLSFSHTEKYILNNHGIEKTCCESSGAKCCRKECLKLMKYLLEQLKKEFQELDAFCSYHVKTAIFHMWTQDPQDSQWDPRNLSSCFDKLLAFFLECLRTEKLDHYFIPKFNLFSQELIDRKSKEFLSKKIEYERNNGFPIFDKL

With “UL37: HSV-1 UL37 tegument protein, a protein deamidase; SEQ ID NO. 1” the “reduction of IFNB1 and ISG56 expression” value (cGAS [1]; THP-1 cells, HT-DNA transfection, UL37 expression) was about 60%, the “effect on expression of IFNB1, ISG56 and CXCL10 induced by HT-DNA” value (cGAS [1]; THP-1 stable cell lines) was “potently reduced the expression of IFNB1, ISG56 and CXCL10” and the “RIG-I deamidation in vitro” value (RIG-I) was “sufficient to reduce RIG-I charge”. The “effect of added UL37 on cGAS-mediated cGAMP production” value (cGAS [2]) was “greatly reduced cGAS-mediated cGAMP production”, the “cGAS deamidation in vitro (2DGE shift)” value (cGAS [3]) was “shifted cGAS toward the positive end of the gel strip” and the “increase of deamidation of the four cGAS sites” value (cGAS [4]) was 2-3 fold. For the same substance, the “increase of the interaction between cGAS and ISD” value [5] was about 50%, the “reduction of IFN-β secretion” value (IFN-β) was about 75% and the “intracellular cGAMP” value (cGAS [6]) was ~35 ng per one million THP-1 cells.
